According to patent publication US6444691B1, “1,3-disubstituted ureas as ACAT inhibitors, and method of preparing thereof” (Solvakofarma, a.s., priority 1997, dated 2002):

How the values were obtained:
[1] = test system: rat liver ACAT (acylCoa:cholesterol acyltransferase); assay: In vitro inhibition of ACAT activity, rat liver microsomal fraction; assay type: biochemical; details: rat liver microsomes, concentration 2 μM, versus enzyme activity in 1% dimethylsulfoxide
Protocol: (§1) The biological activity of the substances was evaluated based on the in vitro inhibition of acylCoa:cholesterol acyltransferase (ACAT) activity. The enzyme was obtained from the microsomal fraction of rat liver cells and rabbit intestinal mucosa of animals fed with cholesterol. The substrates for the enzyme reaction included exogenous oleoyl co-enzyme A and endogenous cholesterol. ^14C-oleoyl co-enzyme A conversion to ^14C-cholesteryl oleate was monitored. From the mixture of extracted lipids, cholesteryl oleate was separated using thin-layer chromatography, and was quantified radiometrically. ACAT specific activity was expressed as the amount of cholesteryl oleate formed per minute per mg microsomal protein.
(§2) Efficiency was calculated as compared to enzyme activity measured in the presence of 1% dimethylsulfoxide used as the solvent to prepare solutions of the substances tested.

[2] = test system: rabbit intestinal mucosa ACAT (acylCoa:cholesterol acyltransferase); assay: In vitro inhibition of ACAT activity, rabbit intestinal mucosa microsomal fraction; assay type: biochemical; details: rabbit intestinal mucosa microsomes, concentration 2 μM, versus enzyme activity in 1% dimethylsulfoxide
Protocol: as §1, §2

Compound | Efficiency (%) liver (ACAT inhibition) [1] | Efficiency (%) mucosa (ACAT inhibition) [2]
CC(C)c1cccc(C(C)C)c1NC(=O)Nc1ccc(Oc2ccc([N+](=O)[O-])cc2)cc1 [Example 14, 1-(2,6-Di-(methylethyl)-phenyl)-3-((4′-nitrophenoxy)-phenyl)-urea] | 50% | 67%
O=C(Nc1ccc(Oc2ccc([N+](=O)[O-])cc2)cc1)Nc1ccccc1C(F)(F)F [Example 15, 1-(2-Trifluoromethylphenyl)-3-((4′-nitrophenoxy)-phenyl)-urea] | 46% | 42%
O=C(Nc1ccc(Oc2ccc([N+](=O)[O-])cc2)cc1)Nc1cccc(C(F)(F)F)c1 [Example 16, 1-(3-Trifluoromethylphenyl)-3-((4′-nitrophenoxy)-phenyl)-urea] | 38% | 45%
O=C(Nc1ccc(Oc2ccc([N+](=O)[O-])cc2)cc1)Nc1ccc(C(F)(F)F)cc1 [Example 17, 1-(4-Trifluoromethylphenyl)-3-((4′-nitrophenoxy)-phenyl)-urea] | 25% | 18%
O=C(Nc1ccc(Oc2ccc([N+](=O)[O-])cc2)cc1)Nc1ccccn1 [Example 18] | 26% | 34%
O=C(Nc1ccc(Oc2ccc([N+](=O)[O-])cc2)cc1)Nc1cccnc1 [Example 19] | 0% | 0%
O=C(Nc1ccncc1)Nc1ccc(Oc2ccc([N+](=O)[O-])cc2)cc1 [Example 20] | 11% | 17%
O=C(Nc1ccc(Oc2ccc([N+](=O)[O-])cc2)cc1)Nc1cccc2ccccc12 [Example 21] | 14% | 22%
O=C(Nc1ccc(Oc2ccc([N+](=O)[O-])cc2)cc1)Nc1ccc2ccccc2c1 [Example 22] | 0% | 12%
O=C(Nc1ccc(Oc2ccc([N+](=O)[O-])cc2)cc1)NC12CC3CC(CC(C3)C1)C2 [Example 23] | 43% | 58%
O=C(Nc1ccc(Sc2ccc([N+](=O)[O-])cc2)cc1)Nc1ccc([N+](=O)[O-])cc1 [Example 24, 1-(4-Nitrophenyl)-3-((4′-nitrophenylthio)-phenyl)-urea] | 0% | 34%
O=C(Nc1ccc(Sc2ccc([N+](=O)[O-])cc2)cc1)Nc1cc(Cl)cc(Cl)c1 [Example 36, 1-(3,5-Dichlorophenyl)-3-((4′-nitrophenylthio)-phenyl)-urea] | 0% | 0%
Cc1ccccc1NC(=O)Nc1ccc(Sc2ccc([N+](=O)[O-])cc2)cc1 [Example 37, 1-(2-Methylphenyl)-3-((4′-nitrophenylthio)-phenyl)-urea] | 27% | 31%
Cc1cc(C)cc(NC(=O)Nc2ccc(Sc3ccc([N+](=O)[O-])cc3)cc2)c1 [Example 41, 1-(3,5-Dimethylphenyl)-3-((4′-nitrophenylthio)-phenyl)-urea] | 18% | 27%
O=C(Nc1ccc(Sc2ccc([N+](=O)[O-])cc2)cc1)Nc1ccc(C(F)(F)F)cc1 [Example 45, 1-(4-Trifluoromethylphenyl)-3-((4′-nitrophenylthio)-phenyl)-urea] | 23% | 25%
O=C(Nc1ccc(Sc2ccc([N+](=O)[O-])cc2)cc1)Nc1ccccn1 [Example 46, 1-(2-Pyridyl)-3-((4′-nitrophenylthio)-phenyl)-urea] | 48% | 46%
O=C(Nc1ccc(Sc2ccc([N+](=O)[O-])cc2)cc1)Nc1cccnc1 [Example 47, 1-(3-Pyridyl)-3-((4′-nitrophenylthio)-phenyl)-urea] | 45% | 36%
O=C(Nc1ccc(Sc2ccc([N+](=O)[O-])cc2)cc1)Nc1cccc2ccccc12 [Example 49, 1-(1-Naphthyl)-3-((4′-nitrophenylthio)-phenyl)-urea] | 24% | 36%
O=C(Nc1ccc(Sc2ccc([N+](=O)[O-])cc2)cc1)Nc1ccc2ccccc2c1 [Example 50, 1-(2-Naphthyl)-3-((4′-nitrophenylthio)-phenyl)-urea] | 16% | 31%
O=C(Nc1ccc(Sc2ccc([N+](=O)[O-])cc2)cc1)NC12CC3CC(CC(C3)C1)C2 [Example 51, 1-(1-Adamantyl)-3-((4′-nitrophenylthio)-phenyl)-urea] | 45% | 56%
Nc1ccc(Oc2ccc(NC(=O)Nc3ccc(F)cc3F)cc2)cc1 [Example 52, 1-(2,4-Difluorophenyl)-3-((4′-aminophenoxy)-phenyl)-urea] | 53% | 64%
Nc1ccc(Oc2ccc(NC(=O)Nc3cccc(Cl)c3Cl)cc2)cc1 [Example 53, 1-(2,3-Dichlorophenyl)-3-((4′-aminophenoxy)-phenyl)-urea] | 55% | 46%
Cc1cccc(C)c1NC(=O)Nc1ccc(Oc2ccc(N)cc2)cc1 [Example 54, 1-(2,6-Dimethylphenyl)-3-((4′-aminophenoxy)-phenyl)-urea] | 38% | 62%

Continued, values first:

Efficiency (%) liver (ACAT inhibition) [1] | Efficiency (%) mucosa (ACAT inhibition) [2] | Compound
0% | 23% | O=C(Nc1ccc(Sc2ccc([N+](=O)[O-])cc2)cc1)Nc1ccccc1F [Example 25, 1-(2-Fluorophenyl)-3-((4′-nitrophenylthio)-phenyl)-urea]
25% | 27% | O=C(Nc1ccc(F)cc1)Nc1ccc(Sc2ccc([N+](=O)[O-])cc2)cc1 [Example 26, 1-(4-Fluorophenyl)-3-((4′-nitrophenylthio)-phenyl)-urea]
16% | 23% | O=C(Nc1ccc(Sc2ccc([N+](=O)[O-])cc2)cc1)Nc1ccc(F)cc1F [Example 27, 1-(2,4-Difluorophenyl)-3-((4′-nitrophenylthio)-phenyl)-urea]
0% | 16% | O=C(Nc1ccc(Sc2ccc([N+](=O)[O-])cc2)cc1)Nc1cc(F)ccc1F [Example 28, 1-(2,5-Difluorophenyl)-3-((4′-nitrophenylthio)-phenyl)-urea]
11% | 25% | O=C(Nc1ccc(Sc2ccc([N+](=O)[O-])cc2)cc1)Nc1c(F)cccc1F [Example 29, 1-(2,6-Difluorophenyl)-3-((4′-nitrophenylthio)-phenyl)-urea]
20% | 26% | O=C(Nc1ccc(Sc2ccc([N+](=O)[O-])cc2)cc1)Nc1ccccc1Cl [Example 30, 1-(2-Chlorophenyl)-3-((4′-nitrophenylthio)-phenyl)-urea]
12% | 21% | O=C(Nc1ccc(Cl)cc1)Nc1ccc(Sc2ccc([N+](=O)[O-])cc2)cc1 [Example 31, 1-(4-Chlorophenyl)-3-((4′-nitrophenylthio)-phenyl)-urea]
0% | 0% | O=C(Nc1ccc(Sc2ccc([N+](=O)[O-])cc2)cc1)Nc1cccc(Cl)c1Cl [Example 32, 1-(2,3-Dichlorophenyl)-3-((4′-nitrophenylthio)-phenyl)-urea]
12% | 16% | O=C(Nc1ccc(Sc2ccc([N+](=O)[O-])cc2)cc1)Nc1ccc(Cl)cc1Cl [Example 33, 1-(2,4-Dichlorophenyl)-3-((4′-nitrophenylthio)-phenyl)-urea]
15% | 21% | O=C(Nc1ccc(Sc2ccc([N+](=O)[O-])cc2)cc1)Nc1c(Cl)cccc1Cl [Example 34, 1-(2,6-Dichlorophenyl)-3-((4′-nitrophenylthio)-phenyl)-urea]
0% | 20% | O=C(Nc1ccc(Sc2ccc([N+](=O)[O-])cc2)cc1)Nc1ccc(Cl)c(Cl)c1 [Example 35, 1-(3,4-Dichlorophenyl)-3-((4′-nitrophenylthio)-phenyl)-urea]
21% | 32% | Cc1ccc(NC(=O)Nc2ccc(Sc3ccc([N+](=O)[O-])cc3)cc2)cc1 [Example 38, 1-(4-Methylphenyl)-3-((4′-nitrophenylthio)-phenyl)-urea]
88% | 71% | CC(C)c1cccc(C(C)C)c1NC(=O)Nc1ccc(Sc2ccc([N+](=O)[O-])cc2)cc1 [Example 42]
25% | 38% | O=C(Nc1ccc(Sc2ccc([N+](=O)[O-])cc2)cc1)Nc1ccccc1C(F)(F)F [Example 43, 1-(2-Trifluoromethylphenyl)-3-((4′-nitrophenylthio)-phenyl)-urea]
53% | 35% | O=C(Nc1ccncc1)Nc1ccc(Sc2ccc([N+](=O)[O-])cc2)cc1 [Example 48, 1-(4-Pyridyl)-3-((4′-nitrophenylthio)-phenyl)-urea]
